Patent publication US8759535B2, “Substituted fused imidazole derivatives, pharmaceutical compositions, and methods of use thereof” (High Point Pharmaceuticals, LLC, priority 2010, dated 2014)
Counter-ions that a name gives are not always drawn.

System: HMOX1
Test: HMOX1 Protein Assay (immunostaining of HO-1 in NHLF cells, GE InCell 1000)
Format: cell-based
Settings: Homo sapiens, fold change above DMSO treated cells, 16 h; for fold induction at 5 µM: 5 μM compound
Summary of the method: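 NHLF cells seeded overnight in FGM-2, then exposed to compound or DMSO vehicle for 16 h, fixed, and immunostained for HO-1 with Hoechst nuclear counterstain; imaged on InCell 1000. Values are fold change over DMSO-treated cells, generally at 5 μM (0.8% DMSO), with asterisked entries at 3 μM.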

SMILES	fold induction at 5 µM	fold induction at 3 µM (3 μM compound (asterisk))
CN[C@@H]1CCN(C(=O)CNC(=O)c2ccc3c(c2)nc(Nc2nc4ccc(OC(F)(F)F)cc4s2)n3C)C1 [Example 413, 1-Methyl-2-(6-trifluoromethoxy-benzothiazol-2-ylamino)-1H-benzoimidazole-5-carboxylic acid [2-((R)-3-methylamino-pyrrolidin-1-yl)-2-oxo-ethyl]-amide hydrochloride]	31.8	
CN[C@H]1CCN(C(=O)CNC(=O)c2ccc3c(c2)nc(Nc2nc4ccc(OC(F)(F)F)cc4s2)n3C)C1 [Example 414, 1-Methyl-2-(6-trifluoromethoxy-benzothiazol-2-ylamino)-1H-benzoimidazole-5-carboxylic acid [2-((S)-3-methylamino-pyrrolidin-1-yl)-2-oxo-ethyl]-amide hydrochloride]	25.7	
CN(C)[C@@H]1CCN(C(=O)CNC(=O)c2ccc3c(c2)nc(Nc2nc4ccc(OC(F)(F)F)cc4s2)n3C)C1 [Example 415, 1-Methyl-2-(6-trifluoromethoxy-benzothiazol-2-ylamino)-1H-benzoimidazole-5-carboxylic acid [2-((R)-3-dimethylamino-pyrrolidin-1-yl)-2-oxo-ethyl]-amide]	74.8	
CN(C)[C@H]1CCN(C(=O)CNC(=O)c2ccc3c(c2)nc(Nc2nc4ccc(OC(F)(F)F)cc4s2)n3C)C1 [Example 416, 1-Methyl-2-(6-trifluoromethoxy-benzothiazol-2-ylamino)-1H-benzoimidazole-5-carboxylic acid [2-((S)-3-dimethylamino-pyrrolidin-1-yl)-2-oxo-ethyl]-amide]	96.6	
CN(C)[C@@H]1CCN(C(=O)CNC(=O)c2ccc3c(c2)nc(Nc2nc4ccc(Cl)cc4s2)n3C)C1 [Example 417, 2-(6-Chloro-benzothiazol-2-ylamino)-1-methyl-1H-benzoimidazole-5-carboxylic acid [2-((R)-3-dimethylamino-pyrrolidin-1-yl)-2-oxo-ethyl]-amide]	62.8	
CN(C)[C@H]1CCN(C(=O)CNC(=O)c2ccc3c(c2)nc(Nc2nc4ccc(Cl)cc4s2)n3C)C1 [Example 418, 2-(6-Chloro-benzothiazol-2-ylamino)-1-methyl-1H-benzoimidazole-5-carboxylic acid [2-((S)-3-dimethylamino-pyrrolidin-1-yl)-2-oxo-ethyl]-amide]	63.3	
CN(C)C(=O)[C@@H]1CCCN1C(=O)CNC(=O)c1ccc2c(c1)nc(Nc1nc3ccc(Cl)cc3s1)n2C [Example 419, 2-(6-Chloro-benzothiazol-2-ylamino)-1-methyl-1H-benzoimidazole-5-carboxylic acid [2-((S)-2-dimethylcarbamoyl-pyrrolidin-1-yl)-2-oxo-ethyl]-amide]	28	
Cn1c(Nc2nc3ccc(OC(F)(F)F)cc3s2)nc2cc(C(=O)NCC(=O)N3CCOCC3)cnc21 [Example 420, 3-Methyl-2-(6-trifluoromethoxy-benzothiazol-2-ylamino)-3H-imidazo[4,5-b]pyridine-6-carboxylic acid (2-morpholin-4-yl-2-oxo-ethyl)-amide]	33	
Cn1c(Nc2nc3ccc(Cl)cc3s2)nc2cc(C(=O)NCC(=O)N3CCOCC3)ccc21 [Example 421, 2-(6-Chloro-benzothiazol-2-ylamino)-1-methyl-1H-benzoimidazole-5-carboxylic acid (2-morpholin-4-yl-2-oxo-ethyl)-amide]	32.2	
Cn1c(Nc2nc3ccc(C(F)(F)F)cc3s2)nc2cc(C(=O)NCC(=O)N3CCOCC3)ccc21 [Example 422, 1-Methyl-2-(6-trifluoromethyl-benzothiazol-2-ylamino)-1H-benzoimidazole-5-carboxylic acid (2-morpholin-4-yl-2-oxo-ethyl)-amide]		25
Cn1c(Nc2nc3ccc(Cl)cc3s2)nc2cc(C(=O)NCC(=O)N3CCSCC3)ccc21 [Example 423, 2-(6-Chloro-benzothiazol-2-ylamino)-1-methyl-1H-benzoimidazole-5-carboxylic acid (2-oxo-2-thiomorpholin-4-yl-ethyl)-amide]	30.2	
